The results in this text go back to EP1947089A1, “A-polymorph of a substituted pyrazoline, its preparation and use as medicaments” (Laboratorios del Dr. Esteve S.A., priority 2007, dated 2008).

Structures are written as SMILES.

Series [1] can be described thus: Behaviour of the solid form under pressure stress. It counts as physicochemical. The following applies: 98 kN (98.07 kN), 13 mm diameter samples, 1, 5 and 30 minutes. The protocol: Samples of the a-Polymorph were submitted to pressure stress for various periods of time (1, 5 and 30 minutes) to investigate the effect of pressure on the solid form. The pressure (98kN) used was chosen to correspond to correspond to the pressure at which planar tablets, of a diameter between 10 and 15 mm, are made. […] Precisely, 13 mm diameter samples of the polymorph were submitted to 98.07 kN of pressure using a Specac press for 1, 5 and 30 minutes and analysed, with no difference.

The nature of series [2]: Thermogravimetric (TG) analysis. It counts as physicochemical. The following applies: 10°C/min between 30 and 600°C, under nitrogen; no weight loss at lower temperatures. The protocol: Thermogravimetric analyses (TGA) were recorded in a Mettler Toldo SDTA851 e. Samples of approximately 2 mg were weighted into open 40 µlalumina crucibles, and heated at 10°C/min between 30 and 600°C, under nitrogen (80 ml/min).

A further series deals with Herg channel (Homo sapiens, UniProt Q12809). The experiment in a line: Herg channel affinity. It counts as binding. The following applies: general statement, no value given; low risk of QT prolongation expected.
Sequence of Herg channel (Q12809 whole entry): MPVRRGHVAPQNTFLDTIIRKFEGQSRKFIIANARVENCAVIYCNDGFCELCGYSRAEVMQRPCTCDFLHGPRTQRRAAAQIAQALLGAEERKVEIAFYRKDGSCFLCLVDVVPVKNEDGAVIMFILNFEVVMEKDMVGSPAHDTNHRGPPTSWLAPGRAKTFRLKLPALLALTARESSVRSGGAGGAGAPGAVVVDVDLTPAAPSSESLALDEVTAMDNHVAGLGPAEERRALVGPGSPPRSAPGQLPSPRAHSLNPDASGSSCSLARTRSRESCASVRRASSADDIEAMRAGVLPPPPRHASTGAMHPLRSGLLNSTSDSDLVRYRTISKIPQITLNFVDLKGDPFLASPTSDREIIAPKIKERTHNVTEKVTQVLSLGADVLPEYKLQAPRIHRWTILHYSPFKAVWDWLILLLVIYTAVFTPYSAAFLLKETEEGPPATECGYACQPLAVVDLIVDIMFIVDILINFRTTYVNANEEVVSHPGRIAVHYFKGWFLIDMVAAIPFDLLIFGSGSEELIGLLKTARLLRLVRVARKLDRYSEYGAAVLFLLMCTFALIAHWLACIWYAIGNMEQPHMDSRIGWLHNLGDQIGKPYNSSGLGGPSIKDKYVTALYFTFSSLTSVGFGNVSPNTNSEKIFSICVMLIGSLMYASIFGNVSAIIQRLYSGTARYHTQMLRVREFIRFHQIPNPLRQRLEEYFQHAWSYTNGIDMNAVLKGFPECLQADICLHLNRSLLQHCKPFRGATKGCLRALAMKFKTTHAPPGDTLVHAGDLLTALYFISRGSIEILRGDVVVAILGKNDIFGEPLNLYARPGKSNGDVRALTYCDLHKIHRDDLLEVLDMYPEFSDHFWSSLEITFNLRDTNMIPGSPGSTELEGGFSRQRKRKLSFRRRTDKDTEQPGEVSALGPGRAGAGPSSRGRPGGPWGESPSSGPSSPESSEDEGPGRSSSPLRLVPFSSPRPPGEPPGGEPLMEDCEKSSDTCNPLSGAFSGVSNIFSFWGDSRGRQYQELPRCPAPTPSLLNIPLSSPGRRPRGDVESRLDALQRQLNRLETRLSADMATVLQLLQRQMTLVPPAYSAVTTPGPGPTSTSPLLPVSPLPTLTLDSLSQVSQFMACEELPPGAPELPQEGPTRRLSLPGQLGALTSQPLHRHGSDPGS

With `O=C(NN1CCCCC1)C1=NN(c2ccc(Cl)cc2Cl)C(c2ccc(Cl)cc2)C1` (racemic) [α-Polymorph, α-Polymorph of N-piperidinyl-5-(4-chlorophenyl)-1-(2,4-dichlorophenyl)-4,5-dihydro-1H-pyrazole-3-carboxamide], in series [1], the “effect of pressure on the solid form (phase change)” value is on record as “did not induce any phase change”. In series [2], the “temperature of weight loss due to decomposition (TG analysis)” value was “higher than 280 °C”. Regarding `O=C(NN1CCCCC1)C1=NN(c2ccc(Cl)cc2Cl)C(c2ccc(Cl)cc2)C1` (racemic) [COMPOUND C, N-piperidinyl-5-(4-chlorophenyl)-1-(2,4-dichlorophenyl)-4,5-dihydro-1H-pyrazole-3-carboxamide], the Herg channel affinity entry at Herg channel is reported as “relatively weak”.
